Results: patent US20250268884A1, “Deuterated Domperidone for Treating Gastroparesis” (CinDome Pharma, Inc., priority 2022, published 2025)

Key:
[1] = system: adults with idiopathic or diabetic gastroparesis; assay: PAGI-SYM questionnaire total and subscale scores, Phase 2a; format: in vivo, human; conditions: for PAGI-SYM bloating subscale score, Baseline / PAGI-SYM bloating subscale score, Change from baseline to Day 14 / PAGI-SYM bloating subscale score, Day 14 / PAGI-SYM bloating subscale score, Percent change from baseline to Day 14 / PAGI-SYM fullness/early satiety subscale score, Baseline / PAGI-SYM fullness/early satiety subscale score, Change from baseline to Day 14 / PAGI-SYM fullness/early satiety subscale score, Day 14 / PAGI-SYM fullness/early satiety subscale score, Percent change from baseline to Day 14 / PAGI-SYM heartburn/regurgitation subscale score, Baseline / PAGI-SYM heartburn/regurgitation subscale score, Change from baseline to Day 14 / PAGI-SYM heartburn/regurgitation subscale score, Day 14 / PAGI-SYM heartburn/regurgitation subscale score, Percent change from baseline to Day 14 / PAGI-SYM lower abdominal pain subscale score, Baseline / PAGI-SYM lower abdominal pain subscale score, Change from baseline to Day 14 / PAGI-SYM lower abdominal pain subscale score, Day 14 / PAGI-SYM lower abdominal pain subscale score, Percent change from baseline to Day 14 / PAGI-SYM nausea/vomiting subscale score, Baseline / PAGI-SYM nausea/vomiting subscale score, Change from baseline to Day 14 / PAGI-SYM nausea/vomiting subscale score, Day 14 / PAGI-SYM nausea/vomiting subscale score, Percent change from baseline to Day 14 / PAGI-SYM total score, Baseline / PAGI-SYM total score, Change from baseline to Day 14 / PAGI-SYM total score, Day 14 / PAGI-SYM total score, Percent change from baseline to Day 14 / PAGI-SYM upper abdominal pain subscale score, Baseline / PAGI-SYM upper abdominal pain subscale score, Change from baseline to Day 14 / PAGI-SYM upper abdominal pain subscale score, Day 14 / PAGI-SYM upper abdominal pain subscale score, Percent change from baseline to Day 14: mean, Safety Population
Procedure: Subjects were Evaluated as Follows: • Days −28 to −11: Screening procedures were performed. The ANMS GCSI-DD questionnaire was completed daily for at least 14 days prior to randomization (Day 1); • Days −10 to −3: The ANMS GCSI-DD questionnaire was completed daily. A GEBT was performed on a single day within this window, with breath samples obtained twice prior to consumption of a standardized, carbon-13 (^13C)-enriched meal and then at 45, 90, 120, 150, 180, and 240 minutes after meal consumption after an 8-hour fast. […] On Day 14 (±2 days), the PAGI-SYM and Clinical Grading Assessment questionnaires were completed prior to the final dose of study drug. • A GEBT was administered 30 minutes after study drug administration on Day 14 (±2 days). Breath samples were obtained twice prior to ^13C-enriched meal consumption and then at 45, 90, 120, 150, 180, and 240 minutes after meal consumption after an 8-hour fast. If a subject withdrew from the study prior to the Day 14 (±2 days) GEBT, attempts should have been made to perform a GEBT on the last day of study drug administration. Clinical Grading Assessment Scales were also performed.
The PAGI-SYM includes 6 subscales: heartburn/regurgitation, fullness/early satiety, nausea/vomiting, bloating, upper abdominal pain, and lower abdominal pain.

[2] = system: adults with idiopathic or diabetic gastroparesis; assay: 12-lead ECG QTcF safety assessment, Phase 2a; format: in vivo, human
Procedure: Safety was evaluated through assessments of Aes, vital signs, physical examinations, clinical laboratory evaluations (including prolactin), and ECG findings.

[3] = system: cardiac repolarization (QTcF) in healthy subjects; conditions: human, in vivo
[4] = Thorough QT study, plasma pharmacokinetics; format: in vivo, human; conditions: healthy subjects
Description: Blood samples for PK determination were drawn at the same time points immediately after the ECG extractions.

healthy subjects = conditions: in vivo
Procedure: Categorical T-wave morphology analysis and measurement of PR and QRS intervals were fully performed manually using a semi-automated process in 3 of the 10 ECG replicates at each time point.
Treatment A: 30 mg CIN-102 [representing approximate steady-state therapeutic exposures in subject population]; Treatment B: 100 mg CIN-102 [representing potential steady-state supratherapeutic exposures in subjects]; Treatment C: 400 mg open-label moxifloxacin; Treatment D: CIN-102 placebo. A subject can appear in more than 1 category. The denominator (Total) is defined as the number of subjects or time points in the QT/QTc population for each treatment.

[5] = 10 mg dose, healthy subjects

[2H]c1c([2H])c([2H])c2c([nH]c(=O)n2CCCN2CCC(n3c(=O)[nH]c4cc(Cl)ccc43)CC2)c1[2H] [Deudomperidone, 1-{3-[4-(5-chloro-2-oxo-2,3-dihydro-1H-1,3-benzodiazol-1-yl)piperidin-1yl]propyl}-2,3-dihydro(4,5,6,7-D4)-1H-1,3-benzodiazol-2-one]
PAGI-SYM bloating subscale score, Baseline ([1]; 5 mg BID): 3.67 | PAGI-SYM bloating subscale score, Change from baseline to Day 14 ([1]; 5 mg BID): −1.00 | PAGI-SYM bloating subscale score, Day 14 ([1]; 5 mg BID): 2.67 | PAGI-SYM bloating subscale score, Percent change from baseline to Day 14 ([1]; 5 mg BID): −30.16% | PAGI-SYM fullness/early satiety subscale score, Baseline ([1]; 5 mg BID): 3.89 | PAGI-SYM fullness/early satiety subscale score, Change from baseline to Day 14 ([1]; 5 mg BID): −1.53 | PAGI-SYM fullness/early satiety subscale score, Day 14 ([1]; 5 mg BID): 2.36 | PAGI-SYM fullness/early satiety subscale score, Percent change from baseline to Day 14 ([1]; 5 mg BID): −38.04% | PAGI-SYM heartburn/regurgitation subscale score, Baseline ([1]; 5 mg BID): 3.63 | PAGI-SYM heartburn/regurgitation subscale score, Change from baseline to Day 14 ([1]; 5 mg BID): −1.79 | PAGI-SYM heartburn/regurgitation subscale score, Day 14 ([1]; 5 mg BID): 1.84 | PAGI-SYM heartburn/regurgitation subscale score, Percent change from baseline to Day 14 ([1]; 5 mg BID): −50.23% | PAGI-SYM lower abdominal pain subscale score, Baseline ([1]; 5 mg BID): 3.11 | PAGI-SYM lower abdominal pain subscale score, Change from baseline to Day 14 ([1]; 5 mg BID): −1.67 | PAGI-SYM lower abdominal pain subscale score, Day 14 ([1]; 5 mg BID): 1.44 | PAGI-SYM lower abdominal pain subscale score, Percent change from baseline to Day 14 ([1]; 5 mg BID): −52.08% | PAGI-SYM nausea/vomiting subscale score, Baseline ([1]; 5 mg BID): 2.74 | PAGI-SYM nausea/vomiting subscale score, Change from baseline to Day 14 ([1]; 5 mg BID): −1.00 | PAGI-SYM nausea/vomiting subscale score, Day 14 ([1]; 5 mg BID): 1.74 | PAGI-SYM nausea/vomiting subscale score, Percent change from baseline to Day 14 ([1]; 5 mg BID): −39.58% | PAGI-SYM total score, Baseline ([1]; 5 mg BID): 3.37 | PAGI-SYM total score, Change from baseline to Day 14 ([1]; 5 mg BID): −1.35 | PAGI-SYM total score, Day 14 ([1]; 5 mg BID): 2.02 | PAGI-SYM total score, Percent change from baseline to Day 14 ([1]; 5 mg BID): −40.13% | PAGI-SYM upper abdominal pain subscale score, Baseline ([1]; 5 mg BID): 3.17 | PAGI-SYM upper abdominal pain subscale score, Change from baseline to Day 14 ([1]; 5 mg BID): −1.11 | PAGI-SYM upper abdominal pain subscale score, Day 14 ([1]; 5 mg BID): 2.06 | PAGI-SYM upper abdominal pain subscale score, Percent change from baseline to Day 14 ([1]; 5 mg BID): −37.28% | PAGI-SYM bloating subscale score, Baseline ([1]; 10 mg BID): 3.84 | PAGI-SYM bloating subscale score, Change from baseline to Day 14 ([1]; 10 mg BID): −1.17 | PAGI-SYM bloating subscale score, Day 14 ([1]; 10 mg BID): 2.65 | PAGI-SYM bloating subscale score, Percent change from baseline to Day 14 ([1]; 10 mg BID): −26.78% | PAGI-SYM fullness/early satiety subscale score, Baseline ([1]; 10 mg BID): 3.60 | PAGI-SYM fullness/early satiety subscale score, Change from baseline to Day 14 ([1]; 10 mg BID): −0.88 | PAGI-SYM fullness/early satiety subscale score, Day 14 ([1]; 10 mg BID): 2.71 | PAGI-SYM fullness/early satiety subscale score, Percent change from baseline to Day 14 ([1]; 10 mg BID): −24.08% | PAGI-SYM heartburn/regurgitation subscale score, Baseline ([1]; 10 mg BID): 2.67 | PAGI-SYM heartburn/regurgitation subscale score, Change from baseline to Day 14 ([1]; 10 mg BID): −1.07 | PAGI-SYM heartburn/regurgitation subscale score, Day 14 ([1]; 10 mg BID): 1.62 | PAGI-SYM heartburn/regurgitation subscale score, Percent change from baseline to Day 14 ([1]; 10 mg BID): −25.45% | PAGI-SYM lower abdominal pain subscale score, Baseline ([1]; 10 mg BID): 2.02 | PAGI-SYM lower abdominal pain subscale score, Change from baseline to Day 14 ([1]; 10 mg BID): −0.79 | PAGI-SYM lower abdominal pain subscale score, Day 14 ([1]; 10 mg BID): 1.25 | PAGI-SYM lower abdominal pain subscale score, Percent change from baseline to Day 14 ([1]; 10 mg BID): −38.38% | PAGI-SYM nausea/vomiting subscale score, Baseline ([1]; 10 mg BID): 2.75 | PAGI-SYM nausea/vomiting subscale score, Change from baseline to Day 14 ([1]; 10 mg BID): −0.93 | PAGI-SYM nausea/vomiting subscale score, Day 14 ([1]; 10 mg BID): 1.78 | PAGI-SYM nausea/vomiting subscale score, Percent change from baseline to Day 14 ([1]; 10 mg BID): −30.39% | PAGI-SYM total score, Baseline ([1]; 10 mg BID): 2.94 | PAGI-SYM total score, Change from baseline to Day 14 ([1]; 10 mg BID): −0.97 | PAGI-SYM total score, Day 14 ([1]; 10 mg BID): 1.97 | PAGI-SYM total score, Percent change from baseline to Day 14 ([1]; 10 mg BID): −31.18% | PAGI-SYM upper abdominal pain subscale score, Baseline ([1]; 10 mg BID): 2.74 | PAGI-SYM upper abdominal pain subscale score, Change from baseline to Day 14 ([1]; 10 mg BID): −0.97 | PAGI-SYM upper abdominal pain subscale score, Day 14 ([1]; 10 mg BID): 1.82 | PAGI-SYM upper abdominal pain subscale score, Percent change from baseline to Day 14 ([1]; 10 mg BID): −24.47% | PAGI-SYM bloating subscale score, Baseline ([1]; 20 mg QD): 3.57 | PAGI-SYM bloating subscale score, Change from baseline to Day 14 ([1]; 20 mg QD): −1.10 | PAGI-SYM bloating subscale score, Day 14 ([1]; 20 mg QD): 2.47 | PAGI-SYM bloating subscale score, Percent change from baseline to Day 14 ([1]; 20 mg QD): −36.38% | PAGI-SYM fullness/early satiety subscale score, Baseline ([1]; 20 mg QD): 3.42 | PAGI-SYM fullness/early satiety subscale score, Change from baseline to Day 14 ([1]; 20 mg QD): −1.10 | PAGI-SYM fullness/early satiety subscale score, Day 14 ([1]; 20 mg QD): 2.32 | PAGI-SYM fullness/early satiety subscale score, Percent change from baseline to Day 14 ([1]; 20 mg QD): −31.45% | PAGI-SYM heartburn/regurgitation subscale score, Baseline ([1]; 20 mg QD): 2.68 | PAGI-SYM heartburn/regurgitation subscale score, Change from baseline to Day 14 ([1]; 20 mg QD): −1.06 | PAGI-SYM heartburn/regurgitation subscale score, Day 14 ([1]; 20 mg QD): 1.62 | PAGI-SYM heartburn/regurgitation subscale score, Percent change from baseline to Day 14 ([1]; 20 mg QD): −34.56% | PAGI-SYM lower abdominal pain subscale score, Baseline ([1]; 20 mg QD): 1.93 | PAGI-SYM lower abdominal pain subscale score, Change from baseline to Day 14 ([1]; 20 mg QD): −0.40 | PAGI-SYM lower abdominal pain subscale score, Day 14 ([1]; 20 mg QD): 1.53 | PAGI-SYM lower abdominal pain subscale score, Percent change from baseline to Day 14 ([1]; 20 mg QD): −10.91% | PAGI-SYM nausea/vomiting subscale score, Baseline ([1]; 20 mg QD): 2.49 | PAGI-SYM nausea/vomiting subscale score, Change from baseline to Day 14 ([1]; 20 mg QD): −1.20 | PAGI-SYM nausea/vomiting subscale score, Day 14 ([1]; 20 mg QD): 1.29 | PAGI-SYM nausea/vomiting subscale score, Percent change from baseline to Day 14 ([1]; 20 mg QD): −50.18% | PAGI-SYM total score, Baseline ([1]; 20 mg QD): 2.72 | PAGI-SYM total score, Change from baseline to Day 14 ([1]; 20 mg QD): −0.93 | PAGI-SYM total score, Day 14 ([1]; 20 mg QD): 1.80 | PAGI-SYM total score, Percent change from baseline to Day 14 ([1]; 20 mg QD): −39.03% | PAGI-SYM upper abdominal pain subscale score, Baseline ([1]; 20 mg QD): 2.27 | PAGI-SYM upper abdominal pain subscale score, Change from baseline to Day 14 ([1]; 20 mg QD): −0.70 | PAGI-SYM upper abdominal pain subscale score, Day 14 ([1]; 20 mg QD): 1.57 | PAGI-SYM upper abdominal pain subscale score, Percent change from baseline to Day 14 ([1]; 20 mg QD): −32.81% | PAGI-SYM total and subscale scores at Day 14 ([1]; all deudomperidone treatment groups, placebo also decreased): decreased from baseline | subjects with ≥6% change from baseline in QTcF ([2]; 10 mg BID, Day 14 at 4 hours post-dose): 1 (3.6%) subjects (%) | subjects with ≥6% change from baseline in QTcF ([2]; 10 mg BID, Day 14 at 6 hours post-dose): 1 (4.3%) subjects (%) | subjects with ≥6% change from baseline in QTcF ([2]; 20 mg QD, Day 14 at 4 hours post-dose): 3 (20.0%) subjects (%) | subjects with ≥6% change from baseline in QTcF ([2]; 20 mg QD, Day 14 at 6 hours post-dose): 2 (16.7%) subjects (%) | QTcF of subject meeting alert criteria (never increased above) ([2]; 1 subject, alert at 4 and 6 hours post-dose on Day 14): ≤ 426 ms | QTcF of second subject meeting alert criteria ([2]; Day 7, baseline QTcF average 430 msec): 474 ms | prolongations of the QTcF interval ([2]; all dose groups): no clinically meaningful prolongations | estimated slope of concentration-QTc relationship, Model B [3]: 0.79 ms per ng/mL | plasma concentration up to which an effect on ΔΔQTcF exceeding 10 ms can be excluded [3]: ~92 ng/mL | treatment effect-specific intercept, Model B [3]: -0.03 ms | time of highest mean plasma concentration of deuterated domperidone ([4]; 30 mg single dose): 1.5 hours post-dose | time of highest mean plasma concentration of deuterated domperidone ([4]; 100 mg single dose): 2 hours post-dose | PR or QRS outliers (healthy subjects): no PR or QRS outliers | treatment-emergent U waves (healthy subjects): no treatment-emergent U waves | Cmax lower than the same oral dose domperidone [5]: approximately 50%
